Biological target: T1, Human thrombin (Homo sapiens, UniProt P00734)
T1 construct: purchased Sigma Chem Co T 6769
Assay: Test A: determination of thrombin clotting time (TT)
Assay type: biochemical
Settings: concentration of inhibitor that doubles the thrombin clotting time for human plasma
Method: Determination of Thrombin Clotting Time (TT)
Human thrombin (T 6769, Sigma Chem Co) in buffer solution, pH 7.4, 100 μI, and inhibitor solution, 100 μl, were incubated for one min. Pooled normal citrated human plasma, 100 μl, was then added and the clotting time measured in an automatic device (KC 10, Amelung).
The clotting time in seconds was plotted against the inhibitor concentration, and the IC50TT was determined by interpolation.
IC50TT is the concentration of inhibitor in the test that doubles the thrombin clotting time for human plasma.

| IC50 [µM] | SMILES |
| --- | --- |
| > 1 | COc1cccc(C(CO)C(=O)N2CCC2C(=O)NCc2ccc(C(N)=NO)cc2)c1 (single isomer, unassigned) [Example 9, (R)- or (S)-3-Methoxyphenyl-CH(CH2OH)—C(O)-Aze-Pab-OH] |
| > 1 | COc1cccc(C(CO)C(=O)N2CCCC2C(=O)NCc2ccc(C(N)=NC(=O)OCc3ccccc3)cc2)c1 (single isomer, unassigned) [Example 10, (S)- or (R)-3-Methoxyphenyl-CH(CH2OH)CO-Pro-Pab(Z)] |
| > 1 | CCC(=O)ON=C(N)c1ccc(CNC(=O)C2CCCN2C(=O)C(CO)c2cccc(OC)c2)cc1 (single isomer, unassigned) [Example 14, (S)- or (R)-3-Methoxyphenyl-CH(CH2OH)—C(O)-Pro-Pab-OC(O)Et] |

The next lines start with the compound.

| SMILES | IC50 [µM] |
| --- | --- |
| COc1cccc(C(CO)C(=O)N2CCCC2C(=O)NCc2ccc(C(N)=NO)cc2)c1 (single isomer, unassigned) [Example 13, (S)- or (R)-3-Methoxyphenyl-CH(CH2OH)—C(O)-Pro-Pab-OH] | > 1 |
| NC(=NO)c1ccc(CNC(=O)C2CCCN2C(=O)C(CO)c2ccccc2)cc1 [Example 8, (R,S)-Ph-CH(CH2OH)—C(O)-Pro-Pab-OH] | > 1 |
| COCC(C)(C(=O)N1CCCC1C(=O)NCc1ccc(C(N)=NC(=O)OCc2ccccc2)cc1)c1ccccc1 [Example 40, (R,S)-Ph-C(Me)(CH2OMe)-C(O)-Pro-Pab(Z)] | > 1 |

From US6838478B2, “Amino acid derivatives and their use as thrombin inhibitors” (AstraZeneca AB, priority 1996, dated 2005)
